Assay type in all cases: cell-based, Candida albicans
Assay [1] relates to C. albicans biofilms. The assay is described as follows: Anti-biofilm activity, FDA fluorescence. Particulars: AMP 0–40 μM for 24 h at 30°C; for concentration inhibiting cell metabolism in biofilm (FDA fluorescence): 24-h-old biofilms; for concentration with anti-biofilm (inhibitory) activity, extinction of FDA fluorescence: 1 h old (young) biofilms. On the procedure:
The antifungal activity against C. albicans biofilms was determined in 96-well microtiter plates (Nunclon Delta, Thermo Fisher Scientific). Cells (10^5) in 100 μL 0.05× PDB were distributed per well and plates were incubated at 37°C for up to 24 h to allow biofilm formation. After cell adherence, the microtiter plates were washed once with 0.05× PDB and the test substances were added in increasing concentrations in 100 μL 0.05× PDB per well. H2O2 served as a control for cell killing. The plates were further incubated at 30°C for 24 h. The wells were washed once with 0.05× PDB and 100 μL of FDA solution (40 μg mL^-1 in 0.05× PDB) was added to the wells. Wells containing only FDA solution (40 μg mL^-1 in 0.05× PDB) were used as blank background control. The plates were incubated for 1 h at 37°C in the dark before the fluorescence signal intensity was measured in a multi-mode microplate reader (FLUOstar Omega, BMG Labtech) with excitation and emission wavelengths of 485 and 520 nm. All experiments were prepared at least in duplicates and repeated at least twice.
Next, we analyzed the potential of the AMPs to inhibit C. albicans biofilm formation. Low susceptibility of biofilms to antifungal agents is often a limiting factor in anti-Candida treatment. To this end, C. albicans cells were distributed in 96-well microtiter plates, allowed to settle down, and to develop biofilms for 1 and 24 h. Then, planktonic cells were washed off and AMPs were added to the biofilms for another 24 h in a concentration range of 0–40 μM. The biofilms were then quantified by adding FDA to the wells. Metabolically active cells convert non-fluorescent FDA into highly fluorescent fluorescein by intracellular enzymatic activity ([Peeters et al., 2008]). The resulting fluorescence signal intensity from AMP-treated biofilms was measured and compared to untreated conditions. […] Twenty-four-hour-old biofilms, however, were resistant against PAF, PAF^var, and PAF^opt in the investigated concentration range (data not shown).

For assay [2], the system named is C. albicans. To be noted: 2 h. On the procedure:
Fungistatic or fungicidal activities were determined by incubating C. albicans (10^4 cells mL^-1) in 0.05× PDB with proteins and peptides at 1× MIC and 2× MIC of at 30°C under continuous shaking (800 rpm) in a Thermomixer Comfort (Eppendorf). At defined time points, aliquots were taken and appropriate dilutions were plated on YPD agar in duplicates to promote growth of viable cells. Agar plates were incubated at 37°C for 24 h to count colony forming units (cfu) ([Huber et al., 2018]).
The determination of the MIC concentration is a well-established, reliable method to elucidate the growth reducing effect of an antifungal compound. […] To gain deeper insight into the antifungal mechanism of the generated protein and peptide variants, we compared them first for their fungicidal potential. In liquid culture C. albicans was exposed to 1× MIC and 2× MIC concentrations of each protein and peptide. After certain time points aliquots were taken and appropriate dilutions were spread on agar plates to allow colony formation of viable cells. The cfu were counted and compared to the untreated control, which was set to be 100%. […] The candidacidal effects were aggravated with higher protein concentrations.

Assay [3] deals with C. albicans. Particulars: 24 h. On the procedure: Fungal strains used in this study are listed in Supplementary Table S1 and composition of growth media is given in Supplementary Table S2. All P. chrysogenum shaking cultures were inoculated with 2 × 10^8 conidia, in 200 mL defined minimal medium (PcMM) for protein expression or complete medium (CM) before transformation, and grown at 25°C as described ([Sonderegger et al., 2016]). For conidial suspension generation from surface cultures, P. chrysogenum was grown on PcMM agar at 25°C. C. albicans was used as PAF-sensitive model organism and was cultivated on yeast extract peptone dextrose (YPD) agar at 37°C. For growth inhibition and susceptibility assays, C. albicans was grown in 20-fold diluted potato dextrose broth (PDB, Sigma-Aldrich) at 30°C, pH 5.5 ([Huber et al., 2018]).
The MIC of all protein and peptide variants was determined on C. albicans with broth microdilution assays in 96-well microtiter plates (Nunclon Delta, Thermo Fisher Scientific). From a fresh C. albicans overnight culture on YPD agar, cells were harvested with an inoculation loop and suspended in 0.05× PDB (Sigma-Aldrich) ([Arendrup et al., 2016]). The cell number was determined with a counting chamber (Bürker) and the cell number was adjusted to 10^4 mL^-1. In each well, 10^3 cells were incubated with increasing concentrations of antifungal proteins or peptides in a final volume of 200 μL 0.05× PDB. The plates were incubated for 24 h at 30°C before the growth was determined by measuring the optical density (OD620nm) with a multi-mode microplate reader (FLUOstar Omega, BMG Labtech). The MIC was defined as the protein concentration that inhibited growth by ≥90% compared to the untreated control, which was referred as 100% growth.

Converted amounts (≈) assume the structure as drawn. Where two headings read alike, the source gives them in different places. Residues, ends and D or L forms follow the SMILES beside them.

For the compound `CC(=O)N[C@@H](CCCCN)C(=O)N[C@@H](Cc1ccc(O)cc1)C(=O)N[C@H](C(=O)NCC(=O)N[C@@H](CCCCN)C(=O)N[C@@H](CS)C(=O)N[C@@H](CCCCN)C(=O)N[C@H](C(=O)N[C@@H](CCCCN)C(=O)N[C@@H](CCCCN)C(=O)N[C@@H](CC(N)=O)C(=O)N[C@@H](CCCCN)C(=O)N[C@@H](CS)C(=O)N[C@@H](CCCCN)C(N)=O)[C@@H](C)O)[C@@H](C)O` [Pγ^opt] (Ac-KYTGKCKTKKNKCK-NH2), in assay [1], the “concentration inhibiting cell metabolism in biofilm (FDA fluorescence)” value amounted to 10 µM. Further, the “concentration with anti-biofilm (inhibitory) activity, extinction of FDA fluorescence” value in assay [1] worked out at 10 µM. The “Candida cells killed (cfu vs untreated control)” value in assay [2] (1) was found to be 29 ± 10%; in assay [2] (2), 88 ± 8%.
Broadly, the MIC is the lowest concentration found to suppress growth. Read a low MIC as a more susceptible organism. For the compound `CC(=O)N[C@@H](CCCCN)C(=O)N[C@@H](Cc1ccc(O)cc1)C(=O)N[C@H](C(=O)NCC(=O)N[C@@H](CCCCN)C(=O)N[C@@H](CS)C(=O)N[C@@H](Cc1ccc(O)cc1)C(=O)N[C@@H](CCCCN)C(=O)N[C@@H](CCCCN)C(=O)N[C@@H](CCCCN)C(=O)N[C@@H](CC(N)=O)C(=O)N[C@@H](CCC(=O)O)C(=O)N[C@@H](CS)C(=O)N[C@@H](CCCCN)C(N)=O)[C@@H](C)O` [Pγ^var] (Ac-KYTGKCYKKKNECK-NH2), in assay [1], the “concentration inhibiting cell metabolism in biofilm (FDA fluorescence)” value amounted to 20 µM and the “concentration with anti-biofilm (inhibitory) activity, extinction of FDA fluorescence” value turned out to be 10 µM. The same compound displayed an MIC in assay [3] of 2.5 µM (≈ 4.41 µg/mL). For the same compound, in assay [2] (1× MIC, 0.05× PDB, 30°C, mean ± SD), the “Candida cells killed (cfu vs untreated control)” value is “no killing effects”. Moreover, the “Candida cells killed (cfu vs untreated control)” value in assay [2] (2) was 50 ± 28%.

The record behind these values is article PMC6062912, “The Evolutionary Conserved γ-Core Motif Influences the Anti-Candida Activity of the Penicillium chrysogenum Antifungal Protein PAF” (Frontiers in Microbiology, 2018).
